Source: a melting point compilation (Tetko et al.; mined from patent text by program, amines drawn as free bases though some values may be those of a salt)

Structure (SMILES) | melting point
Nc1ncnc2c1cnn2C1CCC(OCC(F)c2ccccc2)C(F)C1 (stereo unspecified) | 209 to 211 °C
COCOc1cc(OC)ccc1C(=O)c1ccc(OCc2nc(-c3ccccc3)oc2C)cc1C | 107 to 108 °C
CCOC(Nc1ccccc1)(OCC)c1ccnc(C(=O)c2ccc(Cl)c(Cl)c2)c1 | 113 to 114 °C
OC1=NN(c2cc(-c3ccnc(Nc4cccc(Cl)c4)n3)ccn2)CC1 | 222 to 226 °C
NS(=O)(=O)NCCc1ccccc1 | 61.8 to 62 °C
COc1cc2c(Nc3ccc(Cl)cc3F)ncnc2cc1OCCN1CCN(C)CC1 | 173 to 175 °C
CC(C)(C)CCN1C(=O)C(NC(=O)Oc2ccccc2)C(=O)N(c2ccccc2F)c2ccccc21 (stereo unspecified) | 199 to 200 °C
O=C(Cc1ccccc1)N1CCN(c2ccc(Cl)cc2)CC1 | 93 to 94 °C
Cc1nc2c(N)nc3c(c2n1CCCCNC(=O)N1CCOCC1)CCCC3 | 134 to 135 °C
COc1cccc(N2CCN(C[C@H](CC3CCCCC3)NC(=O)C3CCCCC3)CC2)n1 | 107 to 109 °C
O=C(Nc1nc(C(Cl)(Cl)Cl)ns1)c1ccccc1 | 190 °C
CNC(=O)n1nc(Oc2ccc([N+](=O)[O-])cc2C(F)(F)F)c(Cl)c1C | 157 to 158 °C
CCCC(C)COc1cc(CCl)c(OC)cc1CCl (stereo unspecified) | 78 to 80 °C
CC(=O)Nc1cccc(NC(=O)NC2N=C(c3ccccc3F)c3ccccc3N(CC(=O)N3CC4CCC(CC4)C3)C2=O)c1 (racemic) | 207 to 215 °C
CCN(CCCCC1CCN(C(c2ccccc2)c2ccccc2)CC1)C(=O)C=Cc1cccnc1 | 115 to 117 °C
COC(=O)c1ccccc1-c1ccc(CN2C(=O)c3ccccc3C2=O)cc1 | 148 to 150 °C
Cc1cc(C)c2ncc(Br)n2n1 | 137 to 139 °C
CCN(Cc1ccc2nc(C)[nH]c(=O)c2c1)c1ccc(C(=O)NCc2nccn2Cc2ccccc2)cc1 | 217 to 221 °C
CCCCN1C(=O)CN(c2ccccc2)C1=O | 74 °C
CCc1cccc(CC(=O)O)c1OCCCc1cn(-c2ccc(C(F)(F)F)nn2)nc1C(CC)CC | 93 to 94 °C
CCOC(=O)c1cn(C2CC2)c2nc(N3C[C@@H](CNC(C)=O)[C@H](F)C3)c(F)cc2c1=O (relative stereo) | 211 to 213 °C
Cc1nc(-c2ccccc2)nc(N2CCCC2C(=O)O)c1C (stereo unspecified) | 90 to 92 °C
CN(C)c1nc(NCc2ccco2)nc(Nc2cccc(C(F)(F)F)c2)n1 | 81 to 83 °C
O=C(O)c1ccc(-n2cnnc2)cc1 | > 300 °C
CC1=NN(C(=O)NS(=O)(=O)c2ncccc2C(F)(F)F)C(c2ccccc2)C1 (stereo unspecified) | 185 to 187 °C
CS(=O)(=O)OCCN(CCI)c1c(C(=O)NCCOP(=O)(O)O)cc([N+](=O)[O-])cc1[N+](=O)[O-] | 147 to 150 °C

Structure (SMILES) | melting point
Cc1nc(C)c(C(C)(O)c2ccccn2)s1 (stereo unspecified) | 104 to 105 °C
Cc1nc(COc2ccc(C[C@@H](C)[C@@H](C)Cc3ccc(OCc4csc(C)n4)c(OCc4csc(C)n4)c3)cc2OCc2csc(C)n2)cs1 | 85 to 87 °C
CCOC(=O)C1=C(C)NC(C)=C([N+](=O)[O-])C1c1cccc(Cl)c1 (stereo unspecified) | 168 °C
CCc1nc(-c2ncn3c4ccccc4c(=O)n(C)c23)no1 | 199 to 202 °C
CC(C)C(S)C(=O)NC1(C(=O)NC(Cc2ccc(-c3ccoc3)nc2)C(=O)O)CCCC1 (stereo unspecified) | 52 to 55 °C
Cc1cc(C(=O)C(=O)O)ccc1OCCOc1ccc2ccccc2c1 | 167 to 169 °C
O=C1Cn2c(c(Cl)c3ccccc32)-c2cc(Cl)ccc2N1 | 267 to 271 °C
Cc1ccc(Br)c(C)c1C(O)=S | 98 to 103 °C
O=C(Nc1cccc(F)c1F)c1ccc(-n2nc(C(F)(F)F)cc2C2CC2)nc1 | 155 to 160 °C
C=CCN(C)CCCCCCOc1ccc2c(-c3ccc(Br)cc3)cc(C)nc2c1 | 88 to 93 °C
O=C1Cc2ccccc2C(c2c(F)cccc2Cl)N1 (stereo unspecified) | 249 to 252 °C
[N-]=[N+]=NCC1Cc2cc(I)c3[nH]c(=O)ccc3c2O1 (stereo unspecified) | 175 °C
CCCCc1nc2cccc(CC(=O)O)c2n1Cc1ccccc1Cl | 216 to 217 °C
CC1(COC(=O)N2CC=C(c3ccc(C(F)(F)F)cc3)CC2)Cn2cc([N+](=O)[O-])nc2O1 (stereo unspecified) | 113 to 115 °C
CC(C)c1cccc(C(C)C)c1NC(=O)CNC(c1ccccc1)c1ccc(O)cc1 (stereo unspecified) | 190 to 192 °C
CCOC(=O)c1c(O)c2ccc(F)cc2c(=O)n1CC1CC1 | 88 to 89 °C
CCCCCCCCCCCCCCCc1cc2cc(C(=O)OCCCC)ccc2[nH]1 | 79 to 80 °C
Cc1c(C(=O)NCc2ccc3c(Br)c(OCc4nnn[nH]4)ccc3c2)oc2ccccc12 | 212 to 215 °C
COC(=O)c1ccc2c(c1)C(=O)C(C)C(c1ccccc1)=N2 (stereo unspecified) | > 300 °C
CCOC(=O)C1CCCN2CCC3c4cc(Cl)ccc4N(N)C3C12 (stereo unspecified) | 172 to 175 °C
CN1c2nnnn2-c2ccc(C(O)(c3ccc(Cl)cc3)c3cncn3C)cc2C1c1cccc(Cl)c1 (stereo unspecified) | 235 °C
CCOC(=O)C(=O)Nc1ccncc1 | 110 to 113 °C
CNc1ccc(Sc2nnnn2C)c2cc(-c3nccs3)[nH]c12 | 211 °C
Cc1ccc2c(c1)c1c(n2C(=O)c2ccc(Cl)cc2)CCC(C(=O)O)C1 (stereo unspecified) | 211 to 214 °C
COC(=O)c1ccc(O)c(O)c1O | 221 °C
Clc1ccccc1NC(c1ccccc1)c1ccccc1 | 98 °C

Structure (SMILES) | melting point
CCOc1cc2c(O)c(Br)cnc2nc1C | 266 to 267 °C
Cc1cnc(Cl)c(C(=O)O)c1 | 180 °C
CCN(CC)c1c([N+](=O)[O-])cc(C#N)c(N)c1[N+](=O)[O-] | 146 °C
COc1ccc(OCC(N)=O)c([N+](=O)[O-])c1 | 190 to 191 °C
CC(C)(C)OC(=O)c1nc(-c2ccc(Cl)cc2)[nH]c1-c1ccncc1 | 206 to 207 °C
CC(C)(C)OC(=O)N1[C@@H](CC2CCCCC2)[C@H](c2ccco2)OC1(C)C | 52 to 56 °C
CC(C)C1(C(C)C)C(=O)N=C2c3ccccc3C(=O)N21 | 146 to 148 °C
Cc1ccc(-c2ccc(F)cc2)cc1-c1c(O)c(C)nn(C)c1=O | 216 to 217 °C
CC(CCC(N)=S)N1C(=O)c2ccccc2C1=O (stereo unspecified) | 143 to 146 °C
CC1(C)CN(C2CCN(CCc3ccc(F)cc3)CC2)c2cc(CN)ccc21 | 131 to 133 °C
CCc1c(CO)nc(-c2ccc(OC)c(OC)c2)c2cc(OC)c(OC)cc12 | 160 to 163 °C
COC(=O)c1ccc2c(=O)n(CC(C)C)c(CNC(=O)OC(C)(C)C)c(-c3cccc(F)c3)c2c1 | 206 to 208 °C
COC(=O)C1=NNC(C)=C(C(=O)OC)C1c1ccccc1[N+](=O)[O-] (stereo unspecified) | 203 to 205 °C
Nc1ccc(Oc2ccc3c(c2)OCC(=O)N3)cc1 | 201 to 202 °C
O=C1C2CC3CC1CC(OCc1ccc(-c4nc5ccccc5o4)cc1)(C3)C2 | 159 to 160 °C
CCc1ccc(C(=O)C=CN(C)C)cc1 | 80 to 81 °C
CC(C)Oc1cccc(NC(=O)OC(C)(C)C)c1 | 79 to 81 °C
CC1(Cn2nc(-c3ccccc3)oc2=O)Cn2cc([N+](=O)[O-])nc2O1 (stereo unspecified) | 225 to 227 °C
CNC(=O)c1cccc(F)c1Nc1nc(Nc2ccc3c(c2)C(=O)NCCC3)ncc1Cl | 200 °C
Nc1nc2cc(OCc3ccccc3)ccc2c2c1nc(CCCCNC(=O)Nc1ccccc1)n2CCOc1ccccc1 | 186 to 187 °C
COC(=O)c1cc2cc(OC)c(OC)cc2nc1/N=C/N(C)C | 166 to 168 °C
NS(=O)(=O)OCCN1CCCC1=O | 110 to 112 °C
O=C(NCCCc1ccncc1)N(CCC12CC3CC(CC(C3)C1)C2)Cc1ccco1 | 128 to 130 °C
CC(C)CCS(=O)c1cccc(-c2nc(=O)c3ccccc3s2)n1 (stereo unspecified) | 59.5 to 61 °C
CCCC(=O)c1ccc(OCCCC(=O)O)c(Cl)c1Cl | 111 to 113 °C
N#Cc1c(F)cccc1Nc1c(F)cccc1F | 145 to 146 °C

Structure (SMILES) | melting point
CC(C)(C)n1nc(Cc2ccccc2)c2c(N)nc(-c3ccncc3)nc21 | 188 to 189 °C
CSc1ccc(-c2cc(-n3ccc(C(F)(F)F)n3)c3ccccc3n2)cc1 | 116 to 118 °C
O=C(O)CSCC(Cc1ccccc1)NCCS (stereo unspecified) | 201 °C
CCOc1ccc2c(c1)C(=O)N(c1ccc3sccc3c1)C2 | 127 to 129 °C
C=CCOC(=O)C1=C(C)NC(C)=C(C(=O)OCC=C)C1c1ccccc1Cl | 98 to 99 °C
OCCCc1cnoc1-c1ccc2c(c1)OCO2 | 45 to 46 °C
O=C(O)c1cccc(-c2ccc(Cl)c3cc(Cc4cc(F)cc(Cl)c4)sc23)c1 | 110 to 114 °C
COc1cc(C=CC(=O)C=Cc2cc(OC)cc(OC)c2)cc(OC)c1 | 124 to 126 °C
COC(=O)/C=C/c1c(-c2ccc(F)cc2)cccc1C(C)C | 87 to 89 °C
Cc1c(-c2ccc(Cl)nc2)sc2nc(N)[nH]c(=O)c12 | 230 to 250 °C
Oc1nc(-c2ccccc2)cs1 | 194 to 197 °C
COC(=O)c1cc(C(O)CN(C)C)ccc1OCc1ccccc1 (stereo unspecified) | 79 to 81 °C
CCN(C(=O)C(C)Oc1ccc(Oc2ncc(Cl)cc2Cl)cc1)C(CS)C(=O)O (stereo unspecified) | 89 to 91 °C
CC(=O)NC[C@H]1CN(c2ccc(N=C=S)c(F)c2)C(=O)O1 | 172 to 176 °C
CCOC(=O)n1c(=O)[nH]c2cc(OC)ccc21 | 180 to 183 °C
Cc1ccccc1Oc1cccc2c1OC(=O)C2C (stereo unspecified) | 45 to 46 °C
Cn1c(=O)ccc2cc(COc3cccc(C4(C)CCOCC4)c3)ccc21 | 107 to 108 °C
CCON=C(c1ccccc1COc1ccccc1)n1cncn1 | 78.5 to 80.5 °C
CSc1ccc(C(=O)Nc2ccc3ccc(Cl)nc3n2)cc1 | 199 °C
CCOC(=O)C1=C(C=O)Nc2ccnc(OC(C)C)c2C1c1ccccc1C(F)(F)F (stereo unspecified) | 108 to 109 °C
Cc1cccc2nc3n(c(=O)c12)-c1ccccc1C3=O | 304 to 307 °C
C#Cc1cccc(Nc2ncnc3c2ccn3CCOC)c1 | 240 to 241 °C
Fc1cc(Cl)ccc1C1(Br)NNC2=C1CCCC2 (stereo unspecified) | 95 to 98 °C
